These are literature values, as cited in patent publication US20110190376A1, “RNAi-RELATED INHIBITION OF TNFa SIGNALING PATHWAY FOR TREATMENT OF MACULAR EDEMA” (ALCON RESEARCH, LTD., priority 2007, published 2011).

The test system of one data set is macular edema. As to conditions: patients also suffering from posterior uveitis.
The test system of data set [1] is refractory chronic cystoid macular edema (CME).
The subject of data set [2] is severe diabetic macular edema. Particulars: eyes that had severe diabetic macular edema.

On to infliximab, for which the “resolution of macular edema” value in the data set on macular edema was “caused macular edema to resolve in two patients”. In data set [1], the “eyes with complete regression of refractory chronic cystoid macular edema” value is listed as 8 of 14. In data set [2], the “eyes with anatomic and functional improvement” value is reported as “four of six”.
